Measured values taken from US8354502B2, “Bioactive peptides identified in enzymatic hydrolyzates of milk caseins and method of obtaining same” (Consejo Superior de Investigaciones Cientificas, priority 2005, dated 2013).
Read-outs that look alike come from different tables or passages of the source. Where a SMILES comes first, the peptide text is derived from it. Where no end group is shown, it is not given here.

How the values were obtained:
[1] = system: Listeria innocua CECT 910T; assay: Antimicrobial activity (colony count after 2 h incubation); format: cell-based; conditions: synthetic peptide 0.05 mM
Description: (§1) The antimicrobial activity is determined in accordance with the method of A. Pellegrini, C. Deltting, U. Thomas, P. Hunziker (Isolation and characterization of four bactericidal domains in the bovine β-lactoglobulin Biochimica et Biophysica Acta, 2001, 1526:131-140) using as microorganisms Escherichia coli [American Type Culture Collection (ATCC), Rockville, Md., USA] ATCC 25922, Listeria innocua [Colección Española de Cultivos Tipo (CECT) Valencia, Spain] CECT 910T, Staphylococcus epidermidis CECT 231, Enterococcus faecalis CECT 795, Serratia marcescens CECT 854 and Staphylococcus carnosus CECT 4491T.
(§2) The bacterial suspensions are inoculated at 1% in the Tryptose Soy Broth (TSB) for Escherichia coli, Serratia marcescens and the strains of the Staphylococcus genus, or in the brain-heart infusion (BHI) broth for Enterococcus faecalis and Listeria innocua. The incubation is carried out at 37° C., except in the case of Serratia marcescens, which is at 30° C.
(§3) The bacterial innoculum, from which the work is begun, is obtained after incubating a colony grown in TSB-Agar or BHI-Agar in 10 mL of TSB or BHI overnight at 37a or 30° C. The bacterial suspension (1 mL) is diluted 1/50 with the corresponding culture medium, being incubated at the appropriate temperature for each strain up to achieving a population density of 1-4×10^8 colony-forming units (CFU) per mL. The culture is centrifuged at 2000×g for 10 minutes, the sedimented bacteria are washed twice with 15 mL phosphate buffer (pH 7.4) and the population is adjusted to 10^6 CFU/mL. On a sterile multi-well plate (Greiner Labortechnik, Frickenhausen, Germany), 50 μL of the bacterial suspension, 50 μL of the substance to be tested and 100 μL of the phosphate buffer are mixed with 2% of the appropriate culture medium in each case, and the mixture is incubated at 37° C. or 30° C. for 2 hours. After this time, the mixture is diluted to 10^−5, 100 μL of each one of the dilutions are added to TSB-Agar or BHI-Agar plates and the plates are incubated for 24 hours, after which time the colony count is taken.
(§4) The following equation is used for calculating the antimicrobial activity:
(§5) [formula] [formula] [formula] Measurement of the Angiotensin-Converting Enzyme Inhibitory Activity (ACEIa)

[2] = system: Serratia marcescens CECT 854; assay: as above; format: cell-based; conditions: synthetic peptide 0.05 mM
Description: as §1, §2, §3, §4, §5

[3] = system: Escherichia coli ATCC 25922; assay: as above; format: cell-based; conditions: synthetic peptide 0.05 mM
Description: as §1, §2, §3, §4, §5

[4] = system: Staphylococcus carnosus CECT 4491T; assay: as above; format: cell-based; conditions: synthetic peptide 0.05 mM
Description: as §1, §2, §3, §4, §5

[5] = system: Enterococcus faecalis CECT 795; assay: as above; format: cell-based; conditions: synthetic peptide 0.05 mM
Description: as §1, §2, §3, §4, §5

[6] = system: Staphylococcus epidermidis CECT 231; assay: as above; format: cell-based; conditions: synthetic peptide 0.05 mM
Description: as §1, §2, §3, §4, §5

[7] = molecular target: T1, angiotensin-converting enzyme (ACE) (Oryctolagus cuniculus, UniProt P12822); conditions: peptides from Manchego cheese, Gómez-Ruiz et al. 2004; read-out: ACE-inhibitory activity IC50; cited from earlier work
T1 sequence (P12822 34-1310): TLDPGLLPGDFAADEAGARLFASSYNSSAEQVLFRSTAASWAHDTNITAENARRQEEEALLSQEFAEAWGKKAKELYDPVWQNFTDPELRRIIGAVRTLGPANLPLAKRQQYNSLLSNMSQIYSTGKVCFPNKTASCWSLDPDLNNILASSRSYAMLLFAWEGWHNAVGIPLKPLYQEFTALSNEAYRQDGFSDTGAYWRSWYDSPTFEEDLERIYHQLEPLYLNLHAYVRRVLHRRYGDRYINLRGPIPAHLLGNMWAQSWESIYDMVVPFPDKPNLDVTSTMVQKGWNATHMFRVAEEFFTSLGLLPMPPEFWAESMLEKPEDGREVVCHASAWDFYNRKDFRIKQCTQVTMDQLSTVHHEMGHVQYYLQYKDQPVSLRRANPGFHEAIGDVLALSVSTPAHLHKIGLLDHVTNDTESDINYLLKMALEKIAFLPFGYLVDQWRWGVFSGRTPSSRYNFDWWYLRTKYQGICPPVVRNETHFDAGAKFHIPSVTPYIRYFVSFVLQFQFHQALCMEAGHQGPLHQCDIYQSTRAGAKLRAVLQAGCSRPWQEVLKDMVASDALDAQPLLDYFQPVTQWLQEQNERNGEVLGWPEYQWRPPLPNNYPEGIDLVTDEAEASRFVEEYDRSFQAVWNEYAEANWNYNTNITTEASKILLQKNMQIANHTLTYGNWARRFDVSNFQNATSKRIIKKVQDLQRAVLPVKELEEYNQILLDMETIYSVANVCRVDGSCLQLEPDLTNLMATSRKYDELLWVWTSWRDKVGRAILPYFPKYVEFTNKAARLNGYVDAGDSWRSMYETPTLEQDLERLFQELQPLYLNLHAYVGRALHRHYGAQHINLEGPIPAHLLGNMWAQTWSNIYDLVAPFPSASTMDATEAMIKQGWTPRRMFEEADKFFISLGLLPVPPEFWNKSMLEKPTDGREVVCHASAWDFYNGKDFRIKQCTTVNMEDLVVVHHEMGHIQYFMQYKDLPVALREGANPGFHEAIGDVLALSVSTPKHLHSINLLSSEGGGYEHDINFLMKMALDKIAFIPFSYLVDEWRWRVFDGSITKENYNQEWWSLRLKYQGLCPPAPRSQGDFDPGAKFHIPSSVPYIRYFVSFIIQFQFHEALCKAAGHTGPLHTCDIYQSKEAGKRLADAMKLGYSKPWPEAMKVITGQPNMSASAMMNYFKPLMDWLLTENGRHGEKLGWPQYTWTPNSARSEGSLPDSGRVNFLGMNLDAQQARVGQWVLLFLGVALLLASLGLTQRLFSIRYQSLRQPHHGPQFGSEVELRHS

[8] = molecular target: T1, angiotensin-converting enzyme (ACE); assay: Angiotensin-converting enzyme inhibitory activity (ACEIa) in vitro; format: biochemical
Description: The ACE-inhibitory activity is measured in vitro by the method of D. W. Cushman and H. S. Cheung (Spectrophotometric assay and properties of angiotensin-converting enzyme in rabbit lung. Biochemical Pharmacology, 1971, 20:1637-1648) later modified by […]. Yoon, D. Y. Yu, […]. Chung (Novel angiotensin-1-converting enzyme inhibitory peptides derived from recombinant human αs1-casein expressed in Escherichia coli. Journal of Dairy Research 1999, 66,431-439). The substrate, […], Sigma, Chemical Co, St. Louis, Mo., USA), is dissolved in 0.1 M borate buffer with 0.3 M NaCl, pH 8.3, to obtain a final concentration of 5 mM. 40 μL of each one of the samples whose ACE-inhibitory activity is to be assayed are added to 100 μL of substrate. The ACE enzyme ([…], Sigma) is added, dissolved in 50% glycerol and diluted at the point in time of performing the test in 1/10 bidistilled water. The reaction is carried out at 37° C. for 30 minutes in water bath. The enzyme is inactivated by reducing the pH with 150 μl HCL 1N. The hipuric acid formed is extracted with 1000 μL ethyl acetate. Following agitation in vortex for 20 seconds, it is centrifuged at 3000×g for 10 minutes at ambient temperature. 750 μL are taken from the organic phase that is heat-evaporated at 95° C. for 10 minutes. The hipuric acid residue is re-dissolved in 800 μL bidistilled water and, after agitating for 20 seconds, the absorbance at 228 nm is measured in a Dur-70 spectrophotometer from Beckman Instruments, Inc., Fullerton, USA. The following equation is used for calculating the percentage of ACE-inhibitory activity: [formula] The blank is used to correct the background absorbance. This blank contains substrate, enzyme and 20 μL bidistilled water instead of sample, and the reaction is halted at time zero. The control entailed one hundred percent of the enzymatic action on the substrate in absence of inhibitors and contains […] of water instead of sample and is incubated for the same length of time as the sample. The results are shown as IC50 (μM) or concentration at which the activity of the enzyme is inhibited by 50%. The protein concentration is determined by means of the bicinchoninic acid test (Pierce-Rockord, Ill., USA), using bovine seroalbumin as a pattern.

[9] = system: spontaneously hypertensive rats (SHR); assay: Antihypertensive activity in spontaneously hypertensive rats (SHR), tail cuff SBP and DBP; format: in vivo, rat; conditions: 2 mg/kg, intragastric catheter
Description: The effect of several of the peptides identified on the blood pressure of spontaneously hypertensive rats (SHR) is studied. The peptides are chemically synthesized for this study.
The study is conducted with male SHR rats 17-20 weeks of age weighing 300 to 350 g, from Charles River Laboratories España S. A. The rats are kept in cages, five per cage, maintaining a stable temperature of 25° C., with 12-hour light-darkness cycles, taking water and food ad libitum. […] The SBP and DBP values are determined by taking 3 consecutive measurements and calculating the average of the three values for each one of these two variables. […]
The products to be tested are administered by means of an intragastric catheter within a time span ranging from 9 a.m. to 10 a.m., and the dosage tested is administered dissolved in 1 ml of distilled water. SBP and DBP readings are taken prior to the administration, and periodic measurements of these variables are also made every 2 hours following the administration, up to 8 hours post-administration. […]
The results are grouped and the ±average of the standard error of the measurement (SEM) for a minimum of 6 homogeneous tests is calculated. […]

[10] = read-out: ACE-inhibitory activity CI50, synthetic peptides of FC1 and FD1 subfractions

Compound | Antimicrobial activity L. innocua [1] | Antimicrobial activity S. marcescens [2] | Antimicrobial activity E. coli [3] | Antimicrobial activity S. carnosus [4] | antimicrobial activity against S. carnosus (in words) [4] | Antimicrobial activity E. faecalis [5] | Antimicrobial activity S. epidermidis [6] | also measured
VDQHQKAMKPWTQPKTNAIPYVRYL (Derived from casein) [SEQ. ID. No. 2, ovine αs2-casein fragment 184-208] | 1.71 | 0 | 0.07 | >6 | bactericidal activity | 0 | 0.61 | –
VRYL [SEQ. ID. No. 11, previously identified 205-208 fragment of ovine αs2-casein from Manchego cheese] | – | – | – | – | – | – | – | IC50 [7]: 24.1 µM
CC(C)[C@H](NC(=O)[C@H](Cc1ccc(O)cc1)NC(=O)[C@@H]1CCCN1)C(=O)O [SEQ. ID. No. 15, PYV] (H-Pro-Tyr-Val-OH; N-terminus and C-terminus assumed) | – | – | – | – | – | – | – | IC50 ([8]; synthetic peptides resulting from simulated gastrointestinal digestion, read-out: ACE-inhibitory activity IC50): 741 µM; times less ACE-inhibitory activity than the starting peptide ([8]; versus PYVRYL): 370 times; lowering of the SBP and DBP [9]: significant lowering of the SBP and DBP; time of peak effect on the SBP after administration [9]: 2 h
PYVRYL [SEQ. ID. No. 7, PYVRYL] | – | – | – | – | – | – | – | IC50 [8, 10]: 1.94 µM
LKKISQ [SEQ. ID. No. 1, LKKISQ] | 1.11 | 0 | 0.33 | >6 | bactericidal activity | 0 | 3.6 | ACE-inhibitory activity (in words) [8]: potent ACE-inhibitory activity; IC50 [8, 10]: 2.1 µM
LKKISQYYQKFAWPQYL (Derived from casein) [SEQ. ID. No. 3, ovine αs2-casein fragment 165-181] | >6 | 0.38 | 4.63 | >6 | bactericidal activity | 3.32 | >6 | antimicrobial activity against E. coli (in words) [3]: high degree of antimicrobial activity
HLPLPLL [SEQ. ID. No. 14, HLPLPLL] | – | – | – | – | – | – | – | IC50 ([8]; synthetic peptides of bovine casein permeate fractions, read-out: ACE-inhibitory activity CI50): 34.2 µM
AYFYPEL [SEQ. ID. No. 13, AYFYPEL] | – | – | – | – | – | – | – | IC50 ([8]; read-out: ACE-inhibitory activity CI50, synthetic peptides of bovine casein permeate fractions): 7.5 µM
